Data on 5 compounds can be found in patent US20140242595A1, “HEPATOCYTE PRODUCTION VIA FORWARD PROGRAMMING BY COMBINED GENETIC AND CHEMICAL ENGINEERING” (Cellular Dynamics International, Inc., priority 2013, published 2014).

Assay [1] concerns human rtTET-expressing ESCs transfected with GFH, H1AM and TBX3. Briefly: Hepatic programming efficiency by albumin (ALB) flow analysis. Type of assay: cell-based. The conditions noted are these: for % ALB-expressing cells (hepatic programming efficiency): 0.5 μM, alone, added along with doxycycline day 1 to day 7 post-plating, FIG. 6. An excerpt: Genes that are either implicated in hepatic differentiation during normal mammalian development or enriched in adult hepatocytes were cloned into the PiggyBac vector (FIG. 3) under the control of the […] promoter (Table 1). To find transcription factors that are able to directly impose mature hepatic fate upon human ESCs, various combinations of transgene-expressing PiggyBac vectors along with the hPBase-expressing vector were introduced into the human ESCs having constitutive expression of rtTET through nucleofection (Minis Ingenio Electroporation solution: cat#MIR50114; program: Amaxa B-016). Nucleofected human ESCs were cultured on matrigel in mTeSR1 (Stem Cell Technologies). Following geneticin (100 μg/ml) selection for stable genomic transgene integration (cells were passaged at lease once prior to differentiation), human ESCs were individualized by accutase treatment and plated to matrigel-coated 12-well plates. […] Where appropriate, small molecules, such as MEK inhibitor PD0325901, TGFβ kinase/activin receptor like kinase (ALK5) inhibitor A 83-01, and an analogue of the natural signaling molecule cyclic AMP 8-Bromoadenosine 3',5'-cyclic monophosphate (8-Br-cAMP), were added during hepatic programming. To determine the effect of MEK inhibitor PD0325901 (P) and TGFβ kinase/activin receptor like kinase (ALK5) inhibitor A 83-01 (A) on hepatic programming efficiency, human rtTET-expressing ESCs transfected with […] and TBX3 were plated on matrigel-coated 12-well plates at about 0.2×10^6 cells/well in mTeSR supplemented with 10 μM HA100 on day 0. […] Cells were collected for albumin (ALB) flow analysis on day 13 post-plating. […] Transfected cells were plated on matrigel-coated 12-well plates at about 0.2×10^6 cells/well in mTeSR supplemented with 10 μM HA100 on day 0. […] Cells were collected for ALB flow analysis on day 12 post-plating. […] With transgene expression, hepatocyte-like cells with polygonal shapes, distinct nuclei, and tight cell-cell contacts were readily observed. To determine the effect of cyclic AMP analog 8-Br-cAMP on hepatic programming, human rtTET-expressing ESCs transfected with […] and TBX3 were plated on matrigel-coated 12-well plates at about 0.2×10^6 cells/well in mTeSR supplemented with 10 μM HA100 on day 0. […] Cells were collected for ALB flow analysis on day 13 post-plating.

In assay [2] the test system is MEK. The conditions noted are these: Bain et al., 2007; cited from earlier work.

Each structure is given as a SMILES string.

For the compound `Cc1cccc(-c2nn(C(=S)Nc3ccccc3)cc2-c2ccnc3ccccc23)n1` [A 83-01], in assay [1] (ALB flow analysis day 13), the “% ALB-expressing cells (hepatic programming efficiency)” value was “significantly improves”.

Turning to `C[C@H]1c2cccc(O)c2C(=O)C2=C(O)[C@]3(O)C(=O)C(C(N)=O)=C(O)[C@@H](N(C)C)[C@@H]3[C@@H](O)[C@@H]21` [Doxycycline], in assay [1] (doxycycline 1 μg/ml with P and A for 0, 2, 4, 6, 8 or 10 days, ALB flow analysis day 12, FIG. 7A), the “optimal time window for transgene induction for hepatic programming” value is on record as 4 days. On to `O=C(NOCC1CC1)c1ccc(F)c(F)c1Nc1ccc(I)cc1Cl` [PD184352], for which the “specificity and potency compared to other known MEK inhibitors” value in assay [2] is “high degree of specificity and potency”. For the compound `Nc1ncnc2c1nc(Br)n2[C@@H]1O[C@@H]2COP(=O)(O)O[C@H]2[C@H]1O` [8-Br-cAMP, 8-Bromoadenosine 3′,5′-cyclic monophosphate], in assay [1] (added from day 7 after removal of doxycycline, P and A, ALB flow analysis day 13, FIG. 8), the “saturation concentration for improved hepatic programming” value was approximately 200 µM. The “hepatic programming (ALB flow analysis)” value in assay [1] (different concentrations added from day 7 after removal of doxycycline, P and A, ALB flow analysis day 13, FIG. 8) is on record as “significantly improved”. As to `O=C(NOC[C@H](O)CO)c1ccc(F)c(F)c1Nc1ccc(I)cc1F` [PD0325901], the “% ALB-expressing cells (hepatic programming efficiency)” value in assay [1] (ALB flow analysis day 13) is listed as “significantly improves”.
